Series [1] deals with L5178Y cells. Put plainly: In vitro micronucleus test, flow cytometric (EMA/SYTOX) and microscopy scoring, L5178Y cells. As for the experimental part: L5178Y cells were treated over a range of chemical concentrations in culture medium, one 25 cm^2 flask per concentration. During treatment, cells were at 3×10^5/ml in a volume of 20 ml per flask (this high number of cells facilitated multiple readings per flask). After a 4 hr treatment period, cells were washed one time via centrifugation at 600×g, resuspended in a volume of 40 ml culture medium, and transferred to 75 cm^2 flasks. Cells were re-incubated at 37° C. for 20 additional hrs—the equivalent of two normal doubling times.
In this case, cultures (1.5×10^5 cells/ml, 40 ml/flask) were continuously exposed to chemical over a range of concentrations. Cells were harvested after 24 hrs of incubation at 37° C. without recovery.
At the time of cell harvest, FDA+ and PI+ cell counts were performed as described supra. […] Cells were collected via centrifugation at approximately 600×g for 5 minutes. Supernatants were aspirated, and cells were resuspended with gentle tapping. […] These tubes were placed in racks and submerged to a depth of approximately 2 cm in crushed ice. A visible light source (60 watt light bulb) was positioned approximately 30 cm above the tubes for 20 minutes.
After the photoactivation period, 800 μl cold buffer solution was added to each sample. From this point forward, exposure of samples to light was minimized with dim lighting and foil. The contents of the tubes were then transferred to 15 ml polypropylene centrifuge tubes, and 8 ml of cold buffer solution was added to each sample. Cells were collected via centrifugation, and supernatants aspirated such that approximately 50 μl of supernatant remained per tube. Cells were gently resuspended with tapping, and were maintained at room temperature until the follow procedures were initiated (within 30 minutes). 1 ml “Lysis Solution 1” was added slowly to each tube (approximately 15 seconds per sample). […] Upon addition of Lysis Solution 1, the tube was immediately vortexed (medium setting) for 5 seconds. These samples were kept at room temperature for 1 hr. At this time, 1 ml “Lysis Solution 2” was injected forcefully into each tube, which were immediately vortexed (medium) for 5 seconds. […] These specimens were maintained at room temperature for 30 minutes. Subsequently, samples were stored at 4° C. until flow cytometric analysis (up to two days following cell harvest/staining/lysis procedures).
(§1) Samples, stored for up to two days at 4° C., were gently tapped to resuspend the particles. Data acquisition and analysis was then accomplished with a single-laser flow cytometer, 488 nm excitation (FACSCalibur, BD Biosciences, San Jose, Calif.). Instrumentation settings and data acquisition/analysis were controlled with CellQuest software v3.3 (BD Biosciences). SYTOX-associated fluorescence emission was collected in the FL1 channel (530/30 band-pass filter), and EMA-associated fluorescence was collected in the FL3 channel (670 long-pass filter). Events were triggered on FL1 fluorescence. The FCM gating strategy that was developed for this micronuclei scoring application required events to meet each of six separate criteria before they were scored as nuclei or micronuclei (see FIGS. 2A-H). The incidence of flow cytometric-scored micronuclei is expressed as frequency percent (no. micronuclei/no. nuclei×100), and are based on the acquisition of 20,000 EMA-negative nuclei per specimen.
Approximately 3.5×10^6 cells per culture were centrifuged and resuspended with 20 μl heat-inactivated fetal bovine serum. 5 μl aliquots were applied to glass slides. Air dried slides were submerged in absolute methanol for 10 minutes and then stored in the dark until staining and analysis. […] An Olympus BH-2 fluorescence microscope was used for micronuclei measurements at 400× magnification. For each treated culture, 2000 mononucleated, non-apoptotic, non-necrotic cells were analyzed for the presence of micronuclei (1000 cells×2 slides per culture).
In general terms: A flow cytometer gives signals particle by particle.

Series [2] relates to L5178Y cells. As to the method: as §1
That is, by displaying the SYTOX-associated signal as fluorescence area (FL1-A), qualitative assessments of cell cycle-related effects were possible. […] Note that while these observations are presented in a qualitative manner, software packages are available which are capable of deconvoluting such histograms to provide quantitative assessment of cell cycle effects.

Series [3] has as its system L5178Y cells. As to the method: Once L5178Y or CHO-K1 cells were collected as described above, cytotoxicity measurements were performed as follows: 0.5 ml of each culture was added to flow cytometry tubes containing fluorescein diacetate (“FDA”) (0.075 μg/ml), propidium iodide (“PI”) (25 μg/ml), and 2.5 μm Carmine 580/620 microspheres (Molecular Probes, Eugene, Oreg.). The concentration of these “counting beads” was determined with a hemacytometer. […] Relative survival was then calculated as follows: The number of FDA+ cells in each chemical treatment culture was expressed as a percentage of the number of FDA+ cells in the concurrent solvent control culture.
This is another data set of the same source.

A further series has as its system CHO-K1 cells. Nature of the series: In vitro micronucleus test, flow cytometric and microscopy scoring, CHO-K1 cells. It is filed as cell-based, Chinese hamster. The settings on record: 4 hr treatment, 20 hr recovery, 0-40 μg/ml, FIG. 8. As for the experimental part:
On the day before treatment, CHO-K1 cells were harvested and counted, and their density was adjusted to 6×10^4/ml in culture medium. This cell suspension was added to 75 cm^2 flasks (20 ml per flask; one flask per exposure group). After incubating for approximately 16 to 24 hrs at 37° C., spent culture medium was replaced with 20 ml fresh, pre-warmed medium per flask. Methyl methanesulfonate was added from 1000× strength stock solutions for final concentrations of 0, 10, 20, 30, and 40 μg/ml, at which time cultures where reincubated at 37° C. After a 4 hr treatment period, culture medium was aspirated, cells were rinsed one time with an isotonic salt solution, and then 20 ml fresh, pre-warmed culture medium was added to each flask. These cultures were reincubated for a 20 hr recovery period. At the time of cell harvest, 2.5 ml typsin/EDTA solution per flask was used to detach cells from culture vessels. Cells were collected via centrifugation and responded in culture medium.
(§2) Events were triggered on FL1 fluorescence.
5 μl aliquots were applied to glass slides.

Series [4] deals with L5178Y cells. Put plainly: Cytotoxicity, % EMA-positive events by flow cytometry. It is filed as cell-based.
Text: as §2
In addition to supplying genotoxicity and cell cycle information, these flow cytometric analyses were capable of concurrently providing a measure of cytotoxicity. Specifically, the frequency of EMA-positive events is a statistic that relates to membrane integrity. […] This statistic could be useful for helping to identify chemical concentrations that are too cytotoxic for reliable genotoxicity assessment.

Structures can show the parent of a compound that is named as a salt. Where two headings read alike, the source gives them in different places.

For `O=P1(N(CCCl)CCCl)NCCCO1` (centres unmarked) [Cyclophosphamide monohydrate], the “MN Induction (≥3-fold)” value in the series on L5178Y cells [1] (L5178Y cells, treatment/recovery 4/20 hrs, benzo[a]pyrene and cyclophosphamide with 10% v/v metabolic activation system) is listed as “Yes”.

Regarding `C[C@@H]1C[C@H]2[C@@H]3CCC4=CC(=O)C=C[C@]4(C)[C@@]3(F)[C@@H](O)C[C@]2(C)[C@@]1(O)C(=O)CO` [Dexamethasone], in the series with L5178Y cells [2], the “Cell Cycle Effect” value is recorded as “−”. In the series on L5178Y cells [3], the cell survival result is listed as “significantly affected cell survival”. In addition, in the series on L5178Y cells [1], the “MN Induction (≥3-fold)” value is on record as “No” and the “changes in % micronuclei” value was “Nil to slight changes”. In addition, in the series with L5178Y cells [1] (mouse), the “increase in % micronuclei relative to solvent control” value was “less than 3 fold”.

For `NC(=O)NO` [Hydroxyurea], in the series on L5178Y cells [2], the “Cell Cycle Effect” value is given as “+++”. For the same compound, the “MN Induction (≥3-fold)” value with L5178Y cells [1] was “Yes”.

For `COS(C)(=O)=O` [Methyl methanesulfonate], the “Cell Cycle Effect” value with L5178Y cells [2] is reported as “+++”. Further, the micronucleus frequency entry in the series with CHO-K1 cells is listed as “dose-related increase”. For the same compound, the “MN Induction (≥3-fold)” value with L5178Y cells [1] was “Yes”.

On to `OC[C@H]1O[C@@](CO)(O[C@H]2O[C@H](CO)[C@@H](O)[C@H](O)[C@H]2O)[C@@H](O)[C@@H]1O` [Sucrose], for which the “Cell Cycle Effect” value with L5178Y cells [2] is reported as “−”. Moreover, in the series with L5178Y cells [4], the “% EMA-positive events” value is recorded as “non-cytotoxic”. Further, the micronucleus-induction result in the series with L5178Y cells [1] (L5178Y cells, continuous-treatment exposure (24 hr)) is “not evident”.

`CC[C@]1(O)C[C@@H]2CN(CCc3c([nH]c4ccccc34)[C@@](C(=O)OC)(c3cc4c(cc3OC)N(C)[C@H]3[C@@](O)(C(=O)OC)[C@H](OC(C)=O)[C@]5(CC)C=CCN6CC[C@]43[C@@H]65)C2)C1` [Vinblastine sulfate]: the “Cell Cycle Effect” value in the series with L5178Y cells [2] is “+++”. Moreover, in the series on L5178Y cells [1], the “MN Induction (≥3-fold)” value is recorded as “Yes” and the “micronucleus response, continuous 24 hr exposure versus short-term treatment” value is reported as “greater”.

The values are drawn from patent publication US10000793B2, “Method for enumeration of mammalian cell micronuclei, while distinguishing chromatin of dead and dying cells” (priority 2004, dated 2018).
